Data reported in paper PMC6382835, “A critical evaluation of TRPA1-mediated locomotor behavior in zebrafish as a screening tool for novel anti-nociceptive drug discovery” (Scientific Reports, 2019).
Read-outs that look alike come from different tables or passages of the source.

Legend:
[1] = biological target: T1, zebrafish TRPA1a (zTRPA1a) (Danio rerio, UniProt Q5UM15); assay: FLIPR calcium signaling assay in zTRPA1a-transfected HEK293 cells; type: cell-based
T1 sequence (Q5UM15 1-1115): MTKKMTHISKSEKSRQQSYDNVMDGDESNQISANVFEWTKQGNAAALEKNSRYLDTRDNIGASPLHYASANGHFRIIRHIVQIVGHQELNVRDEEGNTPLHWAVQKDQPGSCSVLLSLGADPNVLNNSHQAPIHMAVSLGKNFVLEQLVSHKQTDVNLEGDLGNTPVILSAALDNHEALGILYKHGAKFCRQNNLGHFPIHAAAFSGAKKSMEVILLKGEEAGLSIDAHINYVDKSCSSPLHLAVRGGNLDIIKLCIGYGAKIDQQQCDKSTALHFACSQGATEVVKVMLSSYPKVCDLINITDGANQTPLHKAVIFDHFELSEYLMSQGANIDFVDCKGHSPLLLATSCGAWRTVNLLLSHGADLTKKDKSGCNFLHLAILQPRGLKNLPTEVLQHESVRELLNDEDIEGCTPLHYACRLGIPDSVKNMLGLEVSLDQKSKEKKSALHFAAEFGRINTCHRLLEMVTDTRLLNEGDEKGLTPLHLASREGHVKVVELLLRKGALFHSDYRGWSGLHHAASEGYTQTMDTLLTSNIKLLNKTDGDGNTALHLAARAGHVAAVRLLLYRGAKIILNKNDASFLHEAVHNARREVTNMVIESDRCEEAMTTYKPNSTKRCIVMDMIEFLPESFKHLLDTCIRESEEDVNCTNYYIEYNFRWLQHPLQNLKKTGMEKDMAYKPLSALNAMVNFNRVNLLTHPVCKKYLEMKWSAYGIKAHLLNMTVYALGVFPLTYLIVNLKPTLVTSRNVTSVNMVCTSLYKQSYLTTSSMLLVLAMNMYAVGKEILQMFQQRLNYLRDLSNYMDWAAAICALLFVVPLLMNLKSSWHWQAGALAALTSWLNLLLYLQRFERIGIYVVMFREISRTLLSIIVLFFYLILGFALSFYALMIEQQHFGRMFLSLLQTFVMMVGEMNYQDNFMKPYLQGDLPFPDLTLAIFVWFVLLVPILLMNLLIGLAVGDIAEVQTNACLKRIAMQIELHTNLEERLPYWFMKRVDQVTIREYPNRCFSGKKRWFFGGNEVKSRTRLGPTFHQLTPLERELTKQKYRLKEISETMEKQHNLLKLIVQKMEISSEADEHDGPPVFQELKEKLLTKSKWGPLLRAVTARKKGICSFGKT
Protocol: The cells were maintained in a 37 °C incubator with consistent 5% CO2. […] Experiments were carried out with the approval of the Institutional Biohazard Committee (#13-013-16).
Twenty-five µl calcium sensitive Fluorescent Imaging Plate Reader (FLIPR) Calcium 6 assay dye (#R8190, Molecular Devices, CA, USA) was added to each well of a 384-well plate containing HEK293 cells transiently expressing mTRPA1, zTRPA1a, and zTRPA1b, respectively. The cells were incubated for an hour prior to the recording of intracellular calcium levels in a FlexStation3 Multi-Mode Microplate Reader (#R8190, Molecular Devices) as previously described. […] During the assay, the cells were challenged by a 5x ASP7663 solution or 1% DMSO solution at the 20 seconds time point, and both solutions were diluted in calcium buffer. Relative fluorescence units (RFU) were measured for 120 seconds period by the Flexstation. […] For each specific antagonist concentration we plotted Log(dose ratio-1) against the antagonist concentration in a Schild plot. The dose ratio (A’/A) equals the EC50 of the agonist (ASP7665) in the presence of a concentration of the antagonist (A’) divided by the EC50 of the agonist in the absence of antagonist (A). The x-intercept of the Schild plot was used to identify the antagonist-receptor affinity (pA2).
All data are presented as means ± standard error of the mean (SEM). For our in vitro statistical analysis, AUC of calcium influx (RFU) was measured to plot dose-response curves, which were further analyzed by nonlinear regression analysis. Mean RFU of the first 10 seconds was used as a baseline of the AUC. EC50 values of the dose-response curves were further used to plot Schild curves, and the curves were analyzed with linear regression analysis. For the mice von Frey test, mechanical thresholds were analyzed with two-way ANOVA followed by a Bonferonni test for multiple comparison analysis. For the zebrafish behavior test, the data from the first five seconds following drug administration were excluded, as zebrafish displacement during that period was highly influenced by liquid dispensing. AUC of all curves were measured and analyzed by one-way ANOVA. The post-hoc analysis was conducted with the Tukey’s or Dunnett’s multiple comparisons unless it stated otherwise. […] For our time-course average displacement graph, we used 2nd degree polynomial smoothing for a better representation; however, we used data before smoothing for all statistical analysis and quantification. All in vitro and in vivo data were evaluated using GraphPad Prism 7 (GraphPad Software, La Jolla, CA) unless it stated otherwise.

[2] = test system: non-transfected HEK293 cells; assay: FLIPR calcium signaling assay in non-transfected HEK293 cells (off-target effect); type: cell-based
[3] = agonist calcium influx, zTRPA1a-transfected HEK293, read-out: EC50 (potency in µM)

C=CCN=C=S [AITC, allyl isothiocyanate]
EC50 ([1]; agonist calcium influx, AUC of RFU, zTRPA1a-transfected HEK293, read-out: pEC50 (AITC given as EC50) (converted)): 25.1 µM | EC50 [1, 3]: 26.6 µM

CC(C)CN1C(=O)/C(=C/C(=O)O)c2cccc(F)c21 [ASP7663]
pEC50 (AITC given as EC50) ([1]; agonist calcium influx, AUC of RFU, zTRPA1a-transfected HEK293): 3.9 ± 0.18 | EC50 [1, 3]: 118 µM | pEC50 (off-target calcium response) [2]: 4.27 ± 0.03 | EC50 ([2]; read-out: EC50 (off-target calcium response)): 54.1 µM

CC(C)c1ccc(NC(=O)Cn2cnc3c2c(=O)n(C)c(=O)n3C)cc1 [HC-030031]
calcium influx by antagonist alone ([1]; 316 µM, zTRPA1a-transfected cells): could produce an influx of intracellular calcium | pEC50 (weak agonist activity) ([1]; HC030031 alone, zTRPA1a-transfected HEK293, Supplemental Fig. 6): 2.85 ± 0.19 | pA2 expressed in µM ([1]; Schild plot against ASP7663-mediated calcium influx, zTRPA1a): 26.8 µM | pA2 ([1]; Schild plot against ASP7663-mediated calcium influx, zTRPA1a, only two antagonist doses): 4.6 ± 0.2 | Schild slope ([1]; zTRPA1a, n = 3): 0.84 ± 0.22 | calcium influx by antagonist alone [2]: did not observe any calcium influx
